Test results taken from US20110020279A1 (priority 2010, published 2011).
Entries after “also recorded” stand apart in the source; their conditions may differ.

How the values were obtained:
activated microglia = settings: cited from earlier work
rabies virus [1] = settings: cited from earlier work
rabies virus [2] = settings: cited from earlier work; remark: listed apart in the source
rabies virus [3] = settings: rat, in vivo; cited from earlier work
[4] = in vivo; cited from earlier work
[5] = mouse, in vivo; cited from earlier work
[6] = human, in vivo
herpes simplex virus = settings: cited from earlier work
[7] = test system: vesicular stomatitis virus; settings: cited from earlier work
poliovirus type 1 = settings: cited from earlier work
HIV virus = settings: cited from earlier work
rabies virus [8] = settings: human, in vivo, cited from earlier work
rabies virus [9] = settings: cited from earlier work; remark: listed apart in the source
[10] = in vivo, iv; cited from earlier work
rabies virus [11] = settings: in vivo; cited from earlier work
[12] = test system: LPS-activated macrophages; settings: cited from earlier work
[13] = in vivo; cited from earlier work; remark: listed apart in the source
[14] = in vivo; cited from earlier work; remark: listed apart in the source
[15] = in vivo; cited from earlier work; remark: listed apart in the source
[16] = parameters: species or system humans; settings: human, in vivo
[17] = in vivo
[18] = test system: MCF-7 human breast cancer cells; settings: cited from earlier work

## C[C@]12CC[C@@H]3c4ccc(O)cc4CC[C@H]3[C@@H]1C[C@@H](O)[C@@H]2O [Estriol]
Activated microglia
  NO and TNF-alpha production by activated microglia: inhibits

## C[C@]12N[C@H](Cc3ccccc31)c1ccccc12 [MK-801]
Rabies virus [1]
  rabies virus infection in primary neuron cultures: inhibited

## Oc1ccc(/C=C/c2cc(O)cc(O)c2)cc1 [Resveratol]
Activated microglia
  NO and TNF-alpha production by activated microglia: inhibits

## COc1cc2c(c(OC)c1OC)-c1ccc(OC)c(=O)cc1[C@@H](NC(C)=O)CC2 [colchicine]
Rabies virus [2]
  rabies virus transport in neurites: blocked
Rabies virus [3]
  day post-infection until which no fluorescent foci could be detected: 3 days

## C[C@]12CCC(=O)C=C1CC[C@@H]1[C@@H]2[C@@H](O)C[C@@]2(C)[C@H]1CC[C@]2(O)C(=O)CO [cortisol]
Activated microglia
  release of TNF-alpha from LPS-treated microglial cells: inhibits

## COc1cc(/C=C/C(=O)CC(=O)/C=C/c2ccc(O)c(OC)c2)ccc1O [curcumin]
Activated microglia
  mRNA and protein levels of inducible nitric oxide synthase (iNOS): suppresses

## S [hydrogen sulfide]
[4]
  borderline concentration for eye irritation: 10-20 ppm
  concentration at which olfactory nerve is paralyzed after a few inhalations: 100-150 ppm
  concentration causing immediate collapse with loss of breathing: over 1000 ppm
  concentration causing strong CNS stimulation, rapid breathing, loss of breathing: 530-1000 ppm
  concentration leading to eye damage: 50-100 ppm
  concentration leading to pulmonary edema with possibility of death: 320-530 ppm
  concentration with exposure limit of 8 hours per day: Less than 10 ppm
  lethal concentration for 50% of humans (LC50): 800 ppm
[5]
  blood pressure: did not significantly decrease
  health consequences afterwards: no negative health consequences

## CNC1(c2ccccc2Cl)CCCCC1=O (stereo not shown) [ketamine]
Rabies virus [1]
  rabies virus infection in primary neuron cultures: inhibited
  reduction in the levels of rabies virus mRNAs relative to untreated neurons: 5- to 11 fold
  viral nucleoprotein and glycoprotein syntheses: inhibited
[6]
  initial cardiovascular effects: tachycardia and elevated blood pressure
Herpes simplex virus
  replication of herpes simplex virus: doesn't affect replication
[7]
  replication of vesicular stomatitis virus: doesn't affect replication
Poliovirus type 1
  replication of poliovirus type 1: doesn't affect replication
HIV virus
  replication of HIV virus: doesn't affect replication
Rabies virus [8]
  outcome of rabies therapy with ketamine and induced coma: failed to save the patient's life
Rabies virus [9]
  ketamine therapy of rabies in experimental studies: poor and disappointing
[10]
  treatment of hiccup: effectively
Rabies virus [11]
  rabies virus infection/spread in rat brain: restricted viral spread; also recorded: reduced

## CC(=O)[C@H]1CC[C@H]2[C@@H]3CCC4=CC(=O)CC[C@]4(C)[C@H]3CC[C@]12C [progesterone]
Activated microglia
  NO and TNF-alpha production by activated microglia: inhibits

## CC(C)c1cccc(C(C)C)c1O [propofol]
[12]
  LPS-induced NO biosynthesis: significantly inhibited
  levels of LPS-enhanced TNF-alpha, IL-1 beta, and IL-6 proteins: significantly reduced
[13]
  time to waking when not administered continuously: 5 to 10 min

## NC(=O)c1ncn([C@@H]2O[C@H](CO)[C@@H](O)[C@H]2O)n1 [ribavirin]
Rabies virus [8]; iv
  outcome of antiviral therapy, intravenous: unsuccessful
  outcome of therapy, combined intravenous and intrathecal administration: unsuccessful

## CC[C@]1(O)C[C@@H]2CN(CCc3c([nH]c4ccccc34)[C@@](C(=O)OC)(c3cc4c(cc3OC)N(C)[C@H]3[C@@](O)(C(=O)OC)[C@H](OC(C)=O)[C@]5(CC)C=CCN6CC[C@]43[C@@H]65)C2)C1 [vinblastine]
Rabies virus [2]
  rabies virus transport in neurites: blocked

## NPH (isophane) insulin
[14]
  Effective duration of action: 10 to 16 h
  Maximum duration: 14 to 18 h
  Onset of Action: 2 to 4 h
  Peak Action: 6 to 10 h

## biopterin
[15]
  post recovery paresis symptoms: relieved

## cytochalasin
Rabies virus [2]
  rabies virus transport in neurites: blocked

## insulin
[16]
  memory, attention, functioning, mood: improves memory, attention, and functioning
[17]
  hypoglycemic effects: did not develop the hypoglycemic effects
[18]
  increase of the cytotoxic effect of methotrexate by insulin: up to 10,000 fold

## insulin aspart
[14]
  Effective duration of action: 3 to 4 h
  Maximum duration: 4 to 6 h
  Onset of Action: ¼-½
  Peak Action: ½-1¼

## insulin detemir
[14]
  Effective duration of action: 14 h
  Maximum duration: ~20 h
  Onset of Action: 3 to 4 h
  Peak Action: 6 to 8 h

## insulin glargine
[14]
  Effective duration of action: 18 to 20 h
  Maximum duration: 20 to 24 h
  Onset of Action: 3 to 4 h
  Peak Action: 8 to 16 h

## insulin glulisine
[14]
  Effective duration of action: 3 to 4 h
  Maximum duration: 4 to 6 h
  Onset of Action: ¼-½
  Peak Action: ½-1¼

## insulin lispro [IInsulin lispro]
[14]
  Effective duration of action: 3 to 4 h
  Maximum duration: 4 to 6 h
  Onset of Action: ¼-½
  Peak Action: ½-1¼

## interferon-Alfa
Rabies virus [8]; iv
  outcome of therapy, combined intravenous and intrathecal administration: unsuccessful

## regular (soluble) insulin
[14]
  Effective duration of action: 3 to 6 h
  Maximum duration: 6 to 8 h
  Onset of Action: ½-1
  Peak Action: 2 to 3 h
